{"source": "patent US9120776B2", "about": "“Condensed heterocyclic compound” (Takeda Pharmaceutical Company Limited, priority 2011, dated 2015)", "key": {"[1]": {"system": "human PBMC", "experiment": "IL17 Production Test in Human PBMC", "assay_type": "cell-based", "settings": "72 h, inhibitory rate at 10 μM of test compound, anti-CD3/CD28 stimulation, 3 days, IL-17A by ELISA", "experimental": "Peripheral blood mononuclear cells (PBMC) collected from human peripheral blood by a density gradient centrifugation method were stimulated by Dynabeads (registered trade mark; anti-CD3/CD28 antibody) and cultured at 37° C. for 3 days. The compound was dissolved in DMSO and then added thereto. After culture for 3 days under such conditions, the concentration of IL-17A in the culture supernatant obtained by centrifugation was measured by ELISA to evaluate the effect of the compound on IL-17 production."}, "[2]": {"system": "IL-17A gene expression", "experiment": "IL-17A gene expression induced by anti-CD3 antibody stimulation in mouse colon", "assay_type": "in vivo", "settings": "po, Balb/c mice", "experimental": "(§1) An anti-CD3 antibody (5 μg/500 μL/mouse, BioXcell) or saline (500 μL/mouse) was intraperitoneally administered to Balb/c mice (female, 8 weeks old). Three hours after the administration, the mice were anesthetized by ether inhalation, and euthanized by cervical spine fracture dislocation. Then, the mice underwent laparotomy, and colons were isolated. The obtained colons were washed with saline, and then, immersed in RNA stabilization buffer (RNAlater, QIAGEN) at 4° C. for 18 hours or longer. Meanwhile, a suspension of a compound in 0.5% methylcellulose was orally administered an hour before administration of anti-CD3 antibody.\n(§2) The colon tissues were retrieved from RNAlater, and immediately immersed in 5 mL of RLT buffer (RNeasy Mini Kit, QIAGEN). Then, the tissues were homogenized at room temperature. Total RNA was extracted from the homogenized solution in accordance with the protocol of RNeasy Mini Kit (QIAGEN), and cDNA was prepared using high capacity RNA-to-cDNA Kit (Applied biosystems). mRNAs of various cytokines were detected by realtime-PCR (TaqMan PCR) using the obtained cDNA as a template. TaqMan universal master mixII (Applied biosystems) was used as PCR buffer, and TaqMan Gene Expression Assays (Applied biosystems): Mm00439619_m1 (IL-17A), Mm00801778 m1 (IFN-γ) and 43252341E (β-actin) were used for detection of each cytokine gene, respectively. The expression levels of each gene were shown as normalized values calculated using β-actin expression level.\nAll the data were shown as mean values±SE. Statistical analyses were performed by Student's t test and William's test."}, "[3]": {"system": "Th17 cells", "experiment": "Mouse Th17 Cell Differentiation Test (IL-17A in culture supernatant, ELISA)", "assay_type": "cell-based", "settings": "inhibitory rate at 10 μM of test compound; mouse CD4 positive naive T cells, 4 days, IL-17A by ELISA; 10 µM", "experimental": "CD4 positive naive T cells were collected from the spleen cells of BALB/c mice (female, 8-11w, Charles River Laboratories Japan, Inc.) using CD4+CD62L+ T Cell Isolation kit II (Miltenyi Biotec). The CD4 positive naive T cells in a 96 well plate (3×10^5 cells/well) were stimulated (37° C. for culture) with anti-mouse CD3ε antibody (Bio X cell) (10 μg/mL, solid phase) and anti-CD28 antibody (Bio X cell) (5 μg/mL) for 4 days in the presence of anti-IFN-γ antibody (BioLegend), anti-IL-4 antibody (BioLegend), anti-IL-2 antibody (BioLegend), IL-6, TGF-β and IL-23 to differentiate into Th17 cells. The compound was dissolved in DMSO and then added thereto. The cells were cultured under these conditions for 4 days, and differentiation of the Th17 cells was evaluated by using the concentration of IL-17A, which was measured by ELISA, in the culture supernatant obtained by centrifugation."}, "[4]": {"system": "IFN-γ gene expression", "experiment": "IFN-γ gene expression induced by anti-CD3 antibody stimulation in mouse colon", "assay_type": "in vivo", "settings": "30, 100 and 300 mg/kg, po, Balb/c mice", "experimental": "as §1\nas §2, with “TaqMan universal master mixII (Applied biosystems) was used as PCR buffer, and TaqMan Gene Expression Assays (Applied biosystems): Mm00439619_m1 (IL-17A), Mm00801778 m1 (IFN-γ) and 43252341E (β-actin) were used for detection of each cytokine gene, respectively.” left out, “level. […]” for “level.”"}, "[5]": {"system": "IL-17A gene expression", "experiment": "IL-17A gene expression in lymph node of EAE rat model", "assay_type": "in vivo", "settings": "30, 100 and 300 mg/kg, po twice a day; EAE-sensitized Lewis rat, 5th day", "experimental": "A killed Mycobacterium tuberculosis, H37Ra (DIFCO), was suspended at the concentration of 2 mg/mL in Freund Incomplete adjuvant (DIFCO), and 5 mg of MBP (Sigma) was dissolved in 1.25 mL of saline (Otsuka). These two solutions were mixed at the ratio of 1:1 using glass syringe with a three-way stopcock until emulsion was obtained. The emulsion was intracutaneously administered to the bottom of the right foot of Lewis rats (male, 7 weeks old) at 0.1 mL/rat.\nA suspension of the compound of Example 14 in 0.5% methylcellulose was orally administered twice a day from the day of sensitization at the dose of 30, 100 or 300 mg/kg. The last administration was performed on the 5th day after sensitization, and an autopsy was performed 4 hours after the last administration.\nThe autopsy was performed on the 5th day after the sensitization, and popliteal lymph nodes of the right leg were collected. […] The synthesized cDNA was detected by PCR reaction using Taqman Gene Expression Master Mix (Applied Biosystems) and 7900HT Fast realtime PCR system (Applied Biosystems) (Stage 1: 50° C., 2 min, Stage 2: 95° C., 10 min, Stage 3: 95° C., 15 sec, 60° C., 1 min, 40 cycle). […]"}, "[6]": {"system": "Th17 cells", "experiment": "Human Th17 Cell Differentiation Test (IL-17A in culture supernatant, ELISA)", "assay_type": "cell-based", "settings": "144 h; inhibitory rate at 10 μM of test compound; human CD4 positive naive T cells, 6 days, IL-17A by ELISA", "experimental": "CD4 positive naive T cells were isolated from peripheral blood mononuclear cells (PBMC) collected from human peripheral blood by a density gradient centrifugation method. The CD4 positive naive T cells were seeded in a 96 well plate (2×10^4 cells/well), and stimulated (37° C. for culture) with anti-CD 3/28Ab Dynabeads (Invitrogen) for 6 days in the presence of IL-1β, IL-6, IL-23, TGFβ, anti-IFNγ Ab (BioLegend) and anti-IL-4 Ab (BioLegend) to differentiate into Th17 cells. The compound was dissolved in DMSO and then added thereto. After culture for 6 days, the concentration of IL-17A in the culture supernatant obtained by centrifugation was measured by ELISA to evaluate differentiation of the Th17 cells."}}}
{"smiles": "CCn1c2ccccc2c2cc(NC(=O)CC(C)CC(=O)Nc3ccc(C#N)c(Cl)c3)ccc21", "note": "(centres unmarked) [Example 14, N-(3-chloro-4-cyanophenyl)-N′-(9-ethyl-9H-carbazol-3-yl)-3-methylpentanediamide]", "values": [{"measurement": "inhibition at 10 µM", "setting": "[1]", "value": 95, "unit": "%"}, {"measurement": "inhibition rate of IL-17A expression", "setting": "[2]; 30 mg/kg", "value": 10, "unit": "%"}, {"measurement": "inhibition rate of IL-17A expression", "setting": "[2]; 100 mg/kg", "value": 25, "unit": "%"}, {"measurement": "inhibition rate of IL-17A expression", "setting": "[2]; 300 mg/kg", "value": 53, "unit": "%"}, {"measurement": "inhibitory rate (%)", "setting": "[3]", "value": 96.0, "unit": "%"}, {"measurement": "effect on IFN-γ expression", "setting": "[4]", "value": "did not affect IFN-γ expression"}, {"measurement": "effect on increase in IL-17A gene expression in lymph node", "setting": "[5]", "value": "tended to suppress the increase in IL-17A gene expression"}, {"measurement": "inhibition at 10 µM", "setting": "[6]", "value": 99.3, "unit": "%"}]}
